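A five-concentration, 48-hour dose response in 96-well plates underlies each endpoint, interpolated linearly between surrounding concentrations. GI50 = concentration required for 50% inhibition of growth. TGI: total growth inhibition.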
Tests used:
Assay in all cases: NCI-60 cell line screen, 48 h
[1] = tested on: HOP-62 NSCLC
[2] = tested on: KM12 colon
[3] = tested on: U251 CNS
[4] = tested on: IGROV1 ovarian
[5] = tested on: OVCAR-3 ovarian
[6] = tested on: NCI-H226 lung
[7] = tested on: SF-295 CNS
[8] = tested on: MOLT-4 leukemia
[9] = tested on: OVCAR-5 ovarian
[10] = tested on: UACC-62 melanoma

Structure (SMILES) | GI50 [1] [µM] | TGI [1] [µM] | GI50 [2] [µM] | TGI [2] [µM] | GI50 [3] [µM] | TGI [3] [µM] | GI50 [4] [µM] | TGI [4] [µM] | GI50 [5] [µM] | TGI [5] [µM] | GI50 [6] [µM] | TGI [6] [µM] | GI50 [7] [µM] | TGI [7] [µM] | GI50 [8] [µM] | TGI [8] [µM] | GI50 [9] [µM] | TGI [9] [µM] | GI50 [10] [µM] | TGI [10] [µM]
O=S(=O)(/N=c1\scc(-c2ccccc2)n1-c1ccccc1)c1ccc(N2N=C3c4ccccc4CC3C2c2ccc(Cl)cc2)cc1 (stereo not given) | 93.9 | > 100 | 19.9 | 89 | 26.1 | 75.5 | 25.7 | 85.1 | 44.3 | > 100 | 94.6 | > 100 | 40.7 | > 100 | 18.5 | > 100 | 38.1 | > 100 | 32.7 | > 100
N#CC(N)=Nc1ccccc1 | – | > 100 | – | > 100 | – | > 100 | – | > 100 | – | > 100 | – | > 100 | – | > 100 | – | > 100 | – | > 100 | – | > 100
CC(=O)c1c(C(F)(F)F)n([O-])c2ccccc2[n+]1=O | 2.34 | 11.9 | 1.19 | 3.43 | 2.17 | 14.5 | 1.02 | 3.78 | 0.746 | 2.61 | 1.46 | 3.91 | 1.07 | 4.53 | 0.613 | > 100 | 1.18 | 3.67 | 0.7 | 3.02
C/C(=N/O)c1cccc(Nc2cc(-n3nnc4ccccc43)nc3ccccc23)c1 | 20.5 | 44.2 | 9.48 | 28.4 | 20.4 | > 100 | 29.9 | > 73 | 13 | 31.7 | 11.8 | 47.3 | 5.62 | 19.8 | 4.05 | > 40 | 22.5 | 84.9 | 12.7 | 34
O=c1ncccn1[C@@H]1O[C@H](CO)[C@H](O)C1O (stereo not given in full) | – | > 100 | – | > 100 | – | > 100 | – | > 100 | – | > 100 | – | > 100 | – | > 100 | – | > 100 | – | > 100 | – | > 100
O=C1OCC2=C1C(c1cccc(F)c1)c1cc3c(cc1N2CCO)OCO3 (stereo not given) | 2.19 | > 50 | 1.48 | > 50 | 2.5 | > 50 | 4.19 | > 50 | 1.27 | > 50 | > 50 | > 50 | 1.2 | > 50 | 3.02 | > 50 | 4.33 | > 50 | 2.25 | > 50
O=C(Oc1cccnc1)c1cccnc1Nc1ccnc(C(F)(F)F)c1 | 13.7 | 36 | 4.01 | 18.2 | 14.3 | 47.3 | 9.51 | > 100 | 18.3 | 62.2 | 12.3 | 71.4 | 44.4 | > 100 | 3.87 | 23.8 | 72.8 | > 100 | 5.78 | 24.1
c1ccc(C2ONC3=NCCN32)cc1 (stereo not given) | 49.4 | > 100 | 51.3 | > 100 | 55 | > 100 | 31.2 | > 100 | 20.5 | 66.3 | 25.3 | 78.6 | 48.3 | > 100 | 12.2 | 34.6 | 67.9 | > 100 | 39.4 | > 100
Cn1c(=O)nc2n(-c3ccc(O)cc3)c3ccccc3nc-2c1=O | – | > 100 | – | > 100 | – | > 100 | – | > 100 | – | 64.2 | – | > 100 | – | > 100 | – | > 100 | – | > 100 | – | 52.5
CCSC1=NC2C(N(CC)C(=O)N2CC)N1/N=C/C=C/c1ccccc1[N+](=O)[O-] (stereo not given) | 0.313 | > 100 | 0.0887 | > 37.7 | 0.174 | > 100 | 0.246 | > 100 | 0.169 | – | 0.381 | > 100 | 0.0612 | > 100 | 0.419 | > 100 | 0.426 | > 100 | 0.0604 | > 100
C=C(c1ccccc1)C1(O)CCCCC1N (stereo not given) | – | > 100 | – | > 100 | – | > 100 | – | > 100 | – | > 100 | – | > 100 | – | > 100 | – | > 100 | – | > 100 | – | > 100
FC(F)(F)c1cccc(-c2nc3nc(Cl)c(Cl)nc3[nH]2)c1 | – | 23.5 | – | 11 | – | 13.6 | – | > 100 | – | 14.9 | – | 13.5 | – | > 100 | – | 10.4 | – | 16 | – | 24.5
CCOc1ccccc1CCN=C1NC(=O)/C(=C/c2ccc3ncccc3c2)S1 | 1.44 | > 17.6 | 0.725 | 10.1 | 1.2 | > 25 | 1.47 | 15 | 0.772 | 2.29 | 4.32 | > 25 | 0.672 | > 6 | 4.02 | > 25 | 3.09 | 15.8 | 1.48 | 10.3
CCc1c2c(nc3ccc(OCc4ccc(B(O)O)cc4)cc13)-c1cc3c(c(=O)n1C2)COC(=O)[C@]3(O)CC | < 0.01 | – | 0.15 | > 51.9 | < 0.01 | – | 0.161 | > 33.7 | 0.172 | 4.46 | 0.0187 | 0.339 | < 0.01 | 7.53 | 0.0101 | > 100 | 0.253 | – | < 0.01 | 0.155
CCN1C(=O)N(CC)C2C1NN=c1s/c(=C\c3ccc(Cl)cc3Cl)c(=O)n12 (stereo not given) | 0.0469 | > 72.8 | 0.0274 | > 32.6 | 0.0365 | > 41.3 | 0.0437 | > 44.4 | 0.0263 | 0.0665 | 0.129 | – | 0.0315 | 27.1 | 0.0421 | > 64.5 | 0.0547 | > 81.5 | 0.064 | > 51.5

Reference: PubChem BioAssay (NCI)
